The values that follow come from PubChem BioAssay AID248 (DTP/NCI, 2004).

Toxic doses and inconclusive results are not listed.

For the assay, the system named is L1210 leukemia ip in BDF1 mice, survival T/C. In words: NCI In Vivo Anticancer Drug Screen. Data for tumor model L1210 Leukemia (intraperitoneal) in B6D2F1 (BDF1) mice. Particulars: higher = longer survival. The procedure:
The antitumor activity of compounds was measured in mice bearing transplantable tumors. Survival or tumor size were measured and the results are expressed as the measurement made in the treated group (T) divided by the measurement made in the vehicle treated control group (C). The tumor model used in this assay is L1210 Leukemia (intraperitoneal) in B6D2F1 (BDF1) mice

[1] abbreviates: endpoint: mean survival time, dose: 100.0 mg/kg/injection, schedule: Q01DX001 (ip), vehicle: Klucel (hydroxypropylcellulose) (HPC).
Setting [2] is: endpoint: mean survival time, dose: 200.0 mg/kg/injection, schedule: Q01DX001 (ip), vehicle: Klucel (hydroxypropylcellulose) (HPC).
Setting [3] is: endpoint: mean survival time, dose: 400.0 mg/kg/injection, schedule: Q01DX001 (ip), vehicle: Klucel (hydroxypropylcellulose) (HPC).
Setting [4] is: endpoint: mean survival time, dose: 200.0 mg/kg/injection, schedule: Q04DX003 (ip), vehicle: saline.
[5] abbreviates: endpoint: mean survival time, dose: 400.0 mg/kg/injection, schedule: Q04DX003 (ip), vehicle: saline.
The mark [6] stands for this setting: endpoint: mean survival time, dose: 100.0 mg/kg/injection, schedule: Q01DX009 (ip), vehicle: Klucel (hydroxypropylcellulose) (HPC).
The mark [7] stands for this setting: endpoint: mean survival time, dose: 100.0 mg/kg/injection, schedule: Q04DX003 (ip), vehicle: Klucel (hydroxypropylcellulose) (HPC).
The mark [8] stands for this setting: endpoint: mean survival time, dose: 200.0 mg/kg/injection, schedule: Q04DX003 (ip), vehicle: Klucel (hydroxypropylcellulose) (HPC).
The mark [9] stands for this setting: endpoint: mean survival time, dose: 400.0 mg/kg/injection, schedule: Q01DX009 (ip), vehicle: Klucel (hydroxypropylcellulose) (HPC).
Where [10] appears, read: endpoint: mean survival time, dose: 400.0 mg/kg/injection, schedule: Q04DX003 (ip), vehicle: Klucel (hydroxypropylcellulose) (HPC).
Where [11] appears, read: endpoint: mean survival time, dose: 100.0 mg/kg/injection, schedule: Q01DX001 (ip), vehicle: saline.
Where [12] appears, read: endpoint: mean survival time, dose: 200.0 mg/kg/injection, schedule: Q01DX001 (ip), vehicle: saline.
Setting [13] is: endpoint: mean survival time, dose: 400.0 mg/kg/injection, schedule: Q01DX001 (ip), vehicle: saline.
[14] abbreviates: endpoint: mean survival time, dose: 200.0 mg/kg/injection, schedule: Q01DX009 (ip), vehicle: Klucel (hydroxypropylcellulose) (HPC).
Where [15] appears, read: endpoint: mean survival time, dose: 100.0 mg/kg/injection, schedule: Q01DX009 (ip), vehicle: saline with Tween-80.
The mark [16] stands for this setting: endpoint: mean survival time, dose: 200.0 mg/kg/injection, schedule: Q01DX009 (ip), vehicle: saline with Tween-80.
The mark [17] stands for this setting: endpoint: mean survival time, dose: 400.0 mg/kg/injection, schedule: Q01DX009 (ip), vehicle: saline with Tween-80.

Regarding `CN(C)c1ccc(C(=O)CCCN2CCC(O)(c3ccc(Cl)cc3)CC2)cc1`, the T/C runs as follows: under setting [1], 95 % of control; under setting [2], 94 % of control; under setting [3], 90 % of control.
With `O=C(O)CC(Nc1ccc([N+](=O)[O-])cc1[N+](=O)[O-])C(=O)O` (stereo not drawn), the T/C by setting is: (endpoint: mean survival time, dose: 100.0 mg/kg/injection, schedule: Q04DX003 (ip), vehicle: saline) 96 % of control; under setting [4], 100 % of control; under setting [5], 120 % of control.
With `Cc1ccc2c3c(c(=O)oc2c1)CCCC3`, the T/C runs as follows: (endpoint: mean survival time, dose: 50.0 mg/kg/injection, schedule: Q01DX001 (ip), vehicle: carboxymethylcellulose (CMC)) 96 % of control; (endpoint: mean survival time, dose: 100.0 mg/kg/injection, schedule: Q01DX001 (ip), vehicle: carboxymethylcellulose (CMC)) 112 % of control; (endpoint: mean survival time, dose: 200.0 mg/kg/injection, schedule: Q01DX001 (ip), vehicle: carboxymethylcellulose (CMC)) 100 % of control; (endpoint: mean survival time, dose: 400.0 mg/kg/injection, schedule: Q01DX001 (ip), vehicle: carboxymethylcellulose (CMC)) 108 % of control.
On to `O=C(O)c1ccc[nH]1`, for which the T/C is, setting by setting: (endpoint: mean survival time, dose: 100.0 mg/kg/injection, schedule: Q04DX002 (ip), vehicle: saline with Tween-80) 102 % of control; (endpoint: mean survival time, dose: 200.0 mg/kg/injection, schedule: Q04DX002 (ip), vehicle: saline with Tween-80) 87 % of control; (endpoint: mean survival time, dose: 400.0 mg/kg/injection, schedule: Q04DX002 (ip), vehicle: saline with Tween-80) 98 % of control.
As to `COc1cc(/C=c2\[nH]c(=O)/c(=C/c3cc(OC)c(OC)c(OC)c3)[nH]c2=O)cc(OC)c1OC`, the T/C is 86 % of control under setting [6]; 93 % of control under setting [7]; 93 % of control under setting [8]; 87 % of control under setting [9]; 88 % of control under setting [10].
Consider `COc1cc(N=Nc2cccc([N+](=O)[O-])c2)ccc1N(CCCl)CCCl`, for which the T/C is 98 % of control (endpoint: median survival time, dose: 100.0 mg/kg/injection, schedule: Q01DX009 (ip), vehicle: Klucel (hydroxypropylcellulose) (HPC)); 100 % of control (endpoint: median survival time, dose: 200.0 mg/kg/injection, schedule: Q01DX009 (ip), vehicle: Klucel (hydroxypropylcellulose) (HPC)); 104 % of control (endpoint: median survival time, dose: 400.0 mg/kg/injection, schedule: Q01DX009 (ip), vehicle: Klucel (hydroxypropylcellulose) (HPC)).
Regarding `S=C(N/N=C1\C=Cc2ccccc2C1)N/N=C1\C=Cc2ccccc2C1`, the T/C by setting is: under setting [11], 92 % of control; under setting [12], 95 % of control; under setting [13], 95 % of control.
Consider `Cc1cccc(NC(=O)Oc2ccc(Nc3ccccc3)cc2)c1`, for which the T/C is 96 % of control under setting [6], 102 % of control under setting [14] and 98 % of control under setting [9].
Consider `CC(C)SSC(C)C`, for which the T/C was 105 % of control under setting [11], 108 % of control under setting [12] and 89 % of control under setting [13].
Consider `O=C(NCP(=O)(O)O)c1cccnc1`, for which the T/C runs as follows: (endpoint: mean survival time, dose: 100.0 mg/kg/injection, schedule: Q04DX003 (ip), vehicle: saline sonified) 94 % of control; (endpoint: mean survival time, dose: 200.0 mg/kg/injection, schedule: Q04DX003 (ip), vehicle: saline sonified) 100 % of control; (endpoint: mean survival time, dose: 400.0 mg/kg/injection, schedule: Q04DX003 (ip), vehicle: saline sonified) 102 % of control.
Turning to `CCCCC(OC(C)=O)C(OC(C)=O)C(COC(C)=O)NC(C)=O` (stereo not drawn), the T/C runs as follows: (endpoint: mean survival time, dose: 100.0 mg/kg/injection, schedule: Q04DX002 (ip), vehicle: other) 103 % of control; (endpoint: mean survival time, dose: 200.0 mg/kg/injection, schedule: Q04DX002 (ip), vehicle: other) 97 % of control; (endpoint: mean survival time, dose: 400.0 mg/kg/injection, schedule: Q04DX002 (ip), vehicle: other) 110 % of control.
`Cc1cc(C)c(NC(=O)c2ccco2)cc1C`: the T/C is 105 % of control under setting [6], 92 % of control under setting [14] and 105 % of control under setting [9].
`CSc1ccc(NC(=O)N(CCCl)N=O)cc1`: the T/C was 109 % of control (endpoint: mean survival time, dose: 0.7 mg/kg/injection, schedule: Q01DX001 (ip), vehicle: carboxymethylcellulose (CMC)); 112 % of control (endpoint: mean survival time, dose: 1.5 mg/kg/injection, schedule: Q01DX001 (ip), vehicle: carboxymethylcellulose (CMC)); 171 % of control (endpoint: mean survival time, dose: 2.0 mg/kg/injection, schedule: Q01DX009 (ip), vehicle: other); 113 % of control (endpoint: mean survival time, dose: 2.6 mg/kg/injection, schedule: Q01DX009 (ip), vehicle: carboxymethylcellulose (CMC)); 119 % of control (endpoint: mean survival time, dose: 4.0 mg/kg/injection, schedule: Q01DX009 (ip), vehicle: carboxymethylcellulose (CMC)); 180 % of control (endpoint: mean survival time, dose: 4.0 mg/kg/injection, schedule: Q01DX009 (ip), vehicle: other). In addition, the T/C by setting is: (endpoint: mean survival time, dose: 8.0 mg/kg/injection, schedule: Q01DX001 (ip), vehicle: other) 208 % of control; (endpoint: mean survival time, dose: 8.0 mg/kg/injection, schedule: Q01DX009 (ip), vehicle: other) 170 % of control; (endpoint: mean survival time, dose: 8.3 mg/kg/injection, schedule: Q01DX001 (ip), vehicle: carboxymethylcellulose (CMC)) 175 % of control; (endpoint: mean survival time, dose: 9.0 mg/kg/injection, schedule: Q01DX009 (ip), vehicle: carboxymethylcellulose (CMC)) 156 % of control; (endpoint: mean survival time, dose: 12.0 mg/kg/injection, schedule: Q01DX001 (ip), vehicle: other) 194 % of control; (endpoint: mean survival time, dose: 12.5 mg/kg/injection, schedule: Q01DX001 (ip), vehicle: carboxymethylcellulose (CMC)) 187 % of control. Further, the T/C is, setting by setting: (endpoint: mean survival time, dose: 18.0 mg/kg/injection, schedule: Q01DX001 (ip), vehicle: other) 101 % of control; (endpoint: mean survival time, dose: 18.7 mg/kg/injection, schedule: Q01DX001 (ip), vehicle: carboxymethylcellulose (CMC)) 211 % of control; (endpoint: mean survival time, dose: 25.0 mg/kg/injection, schedule: Q01DX001 (ip), vehicle: carboxymethylcellulose (CMC)) 94 % of control.
Regarding `OCC1CC=CCC1` (stereo not drawn), the T/C under setting [15] is 105 % of control, the T/C under setting [16] is 106 % of control and the T/C under setting [17] is 117 % of control.
Take `CC(OC(=O)c1ccc([N+](=O)[O-])cc1)C(C)OC(=O)c1ccc([N+](=O)[O-])cc1` (stereo not drawn): the T/C is 92 % of control under setting [1], 97 % of control under setting [2] and 97 % of control under setting [3].
`c1ccc(CC2(Cc3ccccc3)SCCS2)cc1`: the T/C runs as follows: under setting [7], 102 % of control; under setting [8], 91 % of control; under setting [10], 89 % of control.
For `Cc1c(O)cccc1N(C)C`, the T/C by setting is: under setting [11], 112 % of control; (endpoint: mean survival time, dose: 100.0 mg/kg/injection, schedule: Q04DX003 (ip), vehicle: acetone) 111 % of control; under setting [12], 105 % of control; (endpoint: mean survival time, dose: 200.0 mg/kg/injection, schedule: Q04DX003 (ip), vehicle: acetone) 106 % of control; under setting [4], 88 % of control; under setting [13], 91 % of control. In addition, the T/C is, setting by setting: (endpoint: mean survival time, dose: 400.0 mg/kg/injection, schedule: Q04DX003 (ip), vehicle: acetone) 102 % of control; under setting [5], 90 % of control.
For `CNC(=O)Oc1cccc(NC(=O)OC2CCCCC2)c1`, the T/C by setting is: under setting [15], 89 % of control; under setting [16], 97 % of control; under setting [17], 89 % of control.
As for `O=C1c2ccccc2C(=C/C=C/c2ccccc2)c2ccccc21`, the T/C is 99 % of control under setting [7], 89 % of control under setting [8] and 92 % of control under setting [10].
With `O=NN(CCF)C(=O)NC1CS(=O)(=O)CS(=O)(=O)C1`, the T/C is, setting by setting: (endpoint: mean survival time, dose: 6.25 mg/kg/injection, schedule: Q01DX001 (ip), vehicle: other) 164 % of control; (endpoint: mean survival time, dose: 12.5 mg/kg/injection, schedule: Q01DX001 (ip), vehicle: other) 204 % of control; (endpoint: mean survival time, dose: 25.0 mg/kg/injection, schedule: Q01DX001 (ip), vehicle: other) 255 % of control; (endpoint: mean survival time, dose: 50.0 mg/kg/injection, schedule: Q01DX001 (ip), vehicle: other) 262 % of control; (endpoint: mean survival time, dose: 75.0 mg/kg/injection, schedule: Q01DX001 (ip), vehicle: other) 296 % of control; (endpoint: mean survival time, dose: 100.0 mg/kg/injection, schedule: Q01DX001 (ip), vehicle: other) 205 % of control.
